Experimental findings from patent publication EP3536368B1, “DRY POWDER INHALER COMPRISING A SEROTONIN RECEPTOR AGONIST AND A DIKETOPIPERAZINE FOR TREATING MIGRAINES” (MannKind Corporation, priority 2010, dated 2012) are described below.

SMILES strings stand for the structures. Read-outs that look alike come from different tables or passages of the source.

Series [1] relates to migraine model in anesthetized dogs. The experiment in a line: Pharmacodynamic study, capsaicin-induced carotid vasodilation migraine model. It is filed as in vivo, Beagle Dogs. The note with it: regardless of the route of administration.
The conditions of series [2]: rat, in vivo.
A further series in a line: in vivo. The note with it: female, Sprague Dawley, rat, iv.

As usually defined, the half-life is the time needed for the level to fall by half in the phase considered. Read a high half-life as slow loss. For the molecule `CNS(=O)(=O)Cc1ccc2[nH]cc(CCN(C)C)c2c1` [Sumatriptan, sumatriptan], in series [1], the “Blood pressure and heart rate” value was “unaltered”. Besides, in series [2], the tolerability entry is recorded as “well tolerated”. Further, the AUC in series [2] (iv) is 273,729 (min,ng/mL)mg; in series [2] (sc) it was 99,583 (min,ng/mL)mg. Besides, the Cmax in series [2] (iv) was 26,719 ng/mL/mg; in series [2] (sc) it was 2309 ng/mL/mg. Further, the half-life in “in vivo” turned out to be 5.07 h.
